Measurements: patent US10494380B2, “Nitrogen-containing tricyclic derivatives having HIV replication inhibitory activity” (priority 2015, dated 2019)
Read-outs that look alike come from different tables or passages of the source.

What was measured:
[1] = test system: T125A mutant virus (HIV-1 NL-432 recombinant molecular clone, IN gene); test: HIV replication inhibition assay against integrase 124/125 mutant virus (Test Example 2); type: cell-based
How it was run: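 EC50 is the compound concentration blocking half of virus-induced cell death, measured by MTT (OD 560 nm, 690 nm reference) after 4 days at 37 °C. Integrase 124/125 mutant NL-432 virus from transfected 293T cells (60 pfu) was added to 2.5×10^4 MT-4 cells with compound.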

HIV = type: cell-based; details: EC50 in the presence of human serum (25%) versus without human serum, MT-4 cells
Protocol: To confirm the influence of human serum on anti-HIV activity as necessary, human serum was added and determined EC50 in this condition. Human serum (100 μL/well) was dispensed into each anti-HIV active substance at a designated concentration dispensed 50 μL each in advance into a 96-well microtiter plate, and the plate was incubate at room temperature for 1 hour. To the serum-free plate, only culture medium (100 μL/well) was dispensed into 96-well microtiter plate. MT-4 cells (3×10^4 cells/well) was infected with 3 μL/well of HIV solution diluted to an appropriate concentration (600 pfu/50 μL) by the required number of wells and incubated at 37° C. for 1 hour. The infected cells were centrifuged at 1200 rpm for 5 minutes, the supernatant was discarded, and the infected cells were dispersed into culture medium for the required number of wells at 50 μL/well. Infected cell suspension was dispensed into a 96-well microtiter plate of which anti-HIV active substance and human serum prepared in advance. The cell mixture was mixed with a plate mixer and cultured in a CO2 incubator for 4 days. The EC50 in the presence of human serum was calculated in the same manner as in Test Example 1 and the ratio of EC50 in the presence of human serum and EC50 in the absence of human serum was calculated as the potency shift value. […]

[2] = Human immunodeficiency virus 1, MT4, read-out: EC50 against T125A mutant virus, T125A mutant virus (HIV-1 NL-432 IN gene), MT-4 cells, MTT
[3] = T125A mutant virus (HIV-1 NL-432 IN gene), MT-4 cells, MTT, read-out: EC50 against T125A mutant virus

Compound	EC50 [1, 2] [nM]	Potency shift value (HIV)	also measured
Cc1ccc(-c2c([C@H](OC(C)(C)C)C(=O)O)c(C)c3c4c2cc(C)n4CCN3CCN2CCCC2)cc1 [Compound I-130]	27	2.7	–
Cc1c([C@H](OC(C)(C)C)C(=O)O)c(-c2ccc(Cl)cc2)c2cc(C)n3c2c1N(C)C1COCC13 (some centres unmarked) [Compound I-138]	–	5.8	EC50 ([1]; read-out: EC50 against T125A mutant virus, T125A mutant virus (HIV-1 NL-432 IN gene), MT-4 cells, MTT): 1.5 nM
Cc1c([C@H](OC(C)(C)C)C(=O)O)c(-c2ccc(Cl)cc2)c2cc(C)n3c2c1N(Cc1cnccn1)CC3 [Compound I-152]	11	6.9	–
Cc1c(-c2c([C@H](OC(C)(C)C)C(=O)O)c(C)c3c4c2cc(C)n4CCN3C)cc(F)c2c1CCCO2 [Compound I-159]	16	8.8	–
Cc1c([C@H](OC(C)(C)C)C(=O)O)c(-c2ccc(F)cc2)c2cc(C)n3c2c1N(CC(=O)N(C)C)CC3 [Compound I-161]	–	1.9	–
Cc1ccc(-c2c([C@H](OC(C)(C)C)C(=O)O)c(C)c3c4c2cc(C)n4CCN3CCN2CCC(F)(F)C2)cc1 [Compound I-162]	35	7.5	–
Cc1c([C@H](OC(C)(C)C)C(=O)O)c(-c2ccc(Cl)cc2)c2cc(C)n3c2c1N(c1nccs1)CC3 [Compound I-165]	6.9	8.3	–
Cc1c([C@H](OC(C)(C)C)C(=O)O)c(-c2ccc(Cl)cc2)c2cc(C)n3c2c1N(C(N)=S)CC3 [Compound I-166]	62	3.5	–
Cc1c([C@H](OC(C)(C)C)C(=O)O)c(-c2ccc(Cl)cc2)c2cc(C)n3c2c1N(C(=O)C(=O)N(C)C)[C@@H](C)C3 [Compound I-168]	–	2.9	–
Cc1c([C@H](OC(C)(C)C)C(=O)O)c(-c2ccc(Cl)cc2)c2cc(C)n3c2c1N(C(=O)C(=O)N(C)C)[C@H](C)C3 [Compound I-169]	50	30	–
Cc1c([C@H](OC(C)(C)C)C(=O)O)c(-c2ccc(Cl)cc2)c2cc(C)n3c2c1N(C(N)=O)CC3 [Compound I-173]	71	4	–
Cc1c([C@H](OC(C)(C)C)C(=O)O)c(-c2ccc(Cl)cc2)c2cc(C)n3c2c1C=CC3 [Compound I-174]	55	14	–
Cc1ccc(-c2c([C@H](OC(C)(C)C)C(=O)O)c(F)c3c4c2cc(C)n4CCN3C)cc1 [Compound I-179]	83	23	–
Cc1c([C@H](OC(C)(C)C)C(=O)O)c(-c2ccc(Cl)cc2)c2cc(C)n3c2c1N(C1=NCCO1)CC3 [Compound I-180]	13	7.8	–
Cc1c([C@H](OC(C)(C)C)C(=O)O)c(-c2ccc(Cl)cc2)c2cc(C)n3c2c1N(c1ncc(O)cn1)CC3 [Compound I-183]	31	7.6	–
COc1cnc(N2CCn3c(C)cc4c(-c5ccc(F)cc5)c([C@H](OC(C)(C)C)C(=O)O)c(C)c2c43)nc1 [Compound I-185]	7.1	15	–
Cc1ccc(-c2c(C(OC(C)(C)C)C(=O)O)c(C#N)c3c4c2cc(C)n4CCN3C)cc1 (centres unmarked) [Compound I-186]	20	15	–
Cc1ccc(-c2c([C@H](OC(C)(C)C)C(=O)O)c(C)c3c4c2cc(C)n4CCN3c2ncc(N(C)S(C)(=O)=O)cn2)cc1 [Compound I-201]	–	–	EC50 [1, 3]: 14 nM
CC(=O)Nc1cnc(N2CCn3c(C)cc4c(-c5ccc(C)cc5)c([C@H](OC(C)(C)C)C(=O)O)c(C)c2c43)nc1 [Compound I-202]	–	–	EC50 [1, 3]: 56 nM
Cc1c([C@H](OC(C)(C)C)C(=O)O)c(-c2ccc(Cl)cc2)c2cc(C)n3c2c1N(c1ncc(OC(F)F)cn1)CC3 [Compound I-214]	–	–	EC50 [1, 3]: 4 nM
COc1cnc(N2CCn3c(C)cc4c(-c5ccc(Cl)cc5)c([C@H](OC(C)C)C(=O)O)c(C)c2c43)nc1 [Compound I-215]	–	–	EC50 [1, 3]: 47 nM
Cc1ccc(-c2c([C@H](OC(C)(C)C)C(=O)O)c(C)c3c4c2cc(C)n4CCN3c2ncc(OCCNS(C)(=O)=O)cn2)cc1 [Compound I-222]	–	–	EC50 [1, 3]: 89 nM
Cc1c([C@H](OC(C)(C)C)C(=O)O)c(-c2ccc(Cl)cc2)c2cc(C)n3c2c1N(c1ncc(OCOCC[Si](C)(C)C)cn1)CC3 [Compound I-233]	–	12	–
Cc1c([C@H](OC(C)(C)C)C(=O)O)c(-c2ccc(Cl)cc2)c2cc(C)n3c2c1N(c1ncc(OCc2ccc(F)cc2)cn1)CC3 [Compound I-236]	9.9	–	–
Cc1c([C@H](OC(C)(C)C)C(=O)O)c(-c2ccc(Cl)cc2)c2cc(C)n3c2c1N(C)C1CNCC13 (some centres unmarked) [Compound I-237]	–	2.4	–

Compound	EC50 [1, 2] [nM]	Potency shift value (HIV)	also measured
Cc1c([C@H](OC(C)(C)C)C(=O)O)c(-c2ccc(Cl)cc2)c2cc(C)n3c2c1N(c1ncc(OC(C)C)cn1)CC3 [Compound I-261]	3.7	–	–
Cc1ccc(-c2c([C@H](OC(C)(C)C)C(=O)O)c(C)c3c4c2cc(C)n4CCN3c2ncc(Cl)cn2)cc1 [Compound I-263]	7.2	–	–
Cc1ccc(-c2c([C@H](OC(C)(C)C)C(=O)O)c(C)c3c4c2cc(C)n4CCN3c2ncc(C3CC3)cn2)cc1 [Compound I-271]	4.2	–	–
COc1ccnc(N2CCn3c(C)cc4c(-c5ccc(C)cc5)c([C@H](OC(C)(C)C)C(=O)O)c(C)c2c43)c1 [Compound I-277]	14	–	–
Cc1ccc(-c2c([C@H](OC(C)(C)C)C(=O)O)c(C)c3c4c2cc(C)n4CCN3c2cccc(C(F)(F)F)n2)cc1 [Compound I-285]	–	5.1	–
Cc1ccc(-c2c([C@H](OC(C)(C)C)C(=O)O)c(C)c3c4c2cc(C)n4CCN3c2ncc(CO)cn2)cc1 [Compound I-290]	22	–	–
C=CCN1CCn2c(C)cc3c(-c4ccc(C)cc4)c([C@H](OC(C)(C)C)C(=O)O)c(C)c1c32 [Compound I-294]	16	–	–
CCO[C@H](C(=O)O)c1c(C)c2c3c(cc(C)n3CCN2c2ncc(OC)cn2)c1-c1ccc(Cl)cc1 [Compound I-296]	–	2.1	–
CCCO[C@H](C(=O)O)c1c(C)c2c3c(cc(C)n3CCN2c2ncc(OC)cn2)c1-c1ccc(Cl)cc1 [Compound I-297]	–	7.6	–
COc1cnc(N2CCn3c(C)cc4c(-c5ccc(Cl)cc5)c([C@H](OCC5CC5)C(=O)O)c(C)c2c43)nc1 [Compound I-298]	–	11	–
Cc1c([C@H](OC(C)(C)C)C(=O)O)c(-c2ccc(Cl)cc2)c2cc(C)n3c2c1N(c1ncc(C2=CCOCC2)cn1)CC3 [Compound I-300]	4.6	–	–
Cc1ccc(-c2c([C@H](OC(C)(C)C)C(=O)O)c(Cl)c3c4c2cc(C)n4CCN3c2ncc(C)cn2)cc1 [Compound I-301]	3.3	–	–
Cc1ccc(-c2c([C@H](OC(C)(C)C)C(=O)O)c(C)c3c4c2cc(C)n4C2(CCCC2)CN3C)cc1 [Compound I-302]	–	–	EC50 [1, 3]: 43 nM
COc1cnc(N2CCn3c(C)cc4c(-c5ccc(Cl)cc5)c([C@H](OCCO)C(=O)O)c(C)c2c43)nc1 [Compound I-317]	–	1.3	–
COc1cnc(N2CCn3c(C)c(Cl)c4c(-c5ccc(C)cc5)c([C@H](OC(C)(C)C)C(=O)O)c(C)c2c43)nc1 [Compound I-323]	16	–	–
COc1cnc(N2CCn3c(C)c(Cl)c4c(-c5ccc(C)cc5)c([C@H](OC(C)(C)CO)C(=O)O)c(C)c2c43)nc1 [Compound I-324]	63	–	–
CCCCO[C@H](C(=O)O)c1c(C)c2c3c(cc(C)n3CCN2c2ncc(OC)cn2)c1-c1ccc(Cl)cc1 [Compound I-325]	–	5.4	–
CCCCCO[C@H](C(=O)O)c1c(C)c2c3c(cc(C)n3CCN2c2ncc(OC)cn2)c1-c1ccc(Cl)cc1 [Compound I-326]	–	5.8	–
Cc1c([C@H](OC(C)(C)C)C(=O)O)c(-c2ccc(Cl)cc2)c2cc(C)n3c2c1N(C)C(c1ccccc1)C3 (some centres unmarked) [Compound I-333]	–	6.4	–
Cc1c([C@H](OC(C)(C)C)C(=O)O)c(-c2ccc(Cl)cc2)c2cc(C)n3c2c1N(C)C(c1ccccc1)C3 (some centres unmarked) [Compound I-334]	93	–	–
COCCc1cnc(N2CCn3c(C)cc4c(-c5ccc(C)cc5)c([C@H](OC(C)(C)C)C(=O)O)c(C)c2c43)nc1 [Compound I-336]	2.7	–	–
Cc1ccc(-c2c([C@H](OC(C)(C)C)C(=O)O)c(C)c3c4c2cc(C)n4CCN3c2ncc(Oc3ccccn3)cn2)cc1 [Compound I-339]	11	–	–
Cc1ccc(-c2c([C@H](OC(C)(C)C)C(=O)O)c(C)c3c4c2cc(C)n4CCN3c2ncc(Oc3cnccn3)cn2)cc1 [Compound I-341]	4.1	–	–
Cc1ccc(-c2c([C@H](OC(C)(C)C)C(=O)O)c(C)c3c4c2cc(C)n4CCN3c2ncc(Oc3cccnn3)cn2)cc1 [Compound I-342]	13	–	–
COc1cc(Oc2cnc(N3CCn4c(C)cc5c(-c6ccc(C)cc6)c([C@H](OC(C)(C)C)C(=O)O)c(C)c3c54)nc2)nc(OC)n1 [Compound I-346]	10	–	–
